Values joined by “and” are separate entries in the source; they are usually repeats but may differ in a detail not shown here. Equal entries are not always repeated.
Experiments:
[1] = xn = mol fraction of the nth substance listed

CCCCCC(=O)[O-].[NH3+]CCO
101 kPa
Settings | viscosity [mPa·s]
293.15 K | 2571
298.15 K | 1765
303.15 K | 1239
308.15 K | 892.2
313.15 K | 645.8
318.15 K | 477.6
323.15 K | 358.5

CCCCCCC(=O)[O-].CC[NH+](C(C)C)C(C)C
Settings | viscosity [mPa·s]
298.15 K, 101.3 kPa | 12.23

CCCCCCCCCCCC
Settings | viscosity
298.15 K, 101 kPa | 1.34 mPa·s and 1.338 mPa·s and 1.336 mPa·s
298.15 K, 101.33 kPa | 1.324 mPa·s
298.15 K, 103 kPa | 1.291 mPa·s
303.15 K, 101.33 kPa | 1.215 mPa·s and 1.209 mPa·s
307.52 K, 101.3 kPa | 1.159 mPa·s
307.57 K, 101.3 kPa | 1.159 mPa·s
308.15 K, 100 kPa | 1.115 mPa·s and 1.157 mPa·s
308.15 K, 101 kPa | 1.112 mPa·s and 1.125 mPa·s
308.15 K, 103 kPa | 1.086 mPa·s
313.15 K, 101 kPa | 1.039 mPa·s
313.15 K, 101.33 kPa | 1.025 mPa·s
318.15 K, 100 kPa | 0.986 mPa·s
318.15 K, 101 kPa | 0.935 mPa·s and 0.965 mPa·s
318.15 K, 101.33 kPa | 0.935 mPa·s
318.15 K, 103 kPa | 0.936 mPa·s
323.15 K, 100 kPa | 0.9146 mPa·s and 0.921 mPa·s
323.15 K, 101 kPa | 0.898 mPa·s
323.15 K, 102 kPa | 0.917 mPa·s (2×) and 0.919 mPa·s

CCCCCCCCCCCC[P+](CC)(CC)CC.N#Cc1ccc[n-]1
100 kPa
Settings | viscosity
293.15 K | 422 mPa·s and 423 mPa·s
298.15 K | 296 mPa·s and 310 mPa·s
303.15 K | 212 mPa·s and 214 mPa·s
313.15 K | 117 mPa·s and 114 mPa·s

Cc1ccc(N)cc1
101 kPa
Settings | viscosity [mPa·s]
313.05 K | 2.08
323.1 K | 1.8

CCn1cc[n+](C)c1.F[B-](F)(F)F
viscosity
Settings | 293.15 K | 298.15 K | 303.15 K | 313.15 K | 323.15 K
100 kPa | 50.54 mPa·s | 41.45 mPa·s | 34.53 mPa·s | 24.83 mPa·s | 18.62 mPa·s
101 kPa | – | 36.8 mPa·s | 28 mPa·s and 28 mPa·s | 20.41 mPa·s and 20.41 mPa·s | 15.35 mPa·s and 15.35 mPa·s

Cc1ccccc1C
Settings | viscosity
293.15 K, 101 kPa | 0.7604 mPa·s
293.15 K, 101.33 kPa | 0.812 mPa·s
298.15 K, 100 kPa | 0.7464 mPa·s
298.15 K, 101 kPa | 0.765 mPa·s and 0.761 mPa·s
298.15 K, 101.3 kPa | 0.78 mPa·s
298.15 K, 101.33 kPa | 0.7587 mPa·s
303.15 K, 101 kPa | 0.6725 mPa·s and 0.68 mPa·s and 0.7095 mPa·s
303.15 K, 101.3 kPa | 0.7272 mPa·s and 0.7062 mPa·s
303.15 K, 101.32 kPa | 0.702 mPa·s
303.15 K, 101.33 kPa | 0.757 mPa·s and 0.711 mPa·s
308.15 K, 100 kPa | 0.6199 mPa·s
308.15 K, 101 kPa | 0.676 mPa·s and 0.656 mPa·s
308.15 K, 101.33 kPa | 0.5381 mPa·s and 0.725 mPa·s and 0.659 mPa·s
313.15 K, 101.32 kPa | 0.627 mPa·s
313.15 K, 101.33 kPa | 0.702 mPa·s
318.15 K, 101.33 kPa | 0.682 mPa·s
323.15 K, 101.3 kPa | 0.5554 mPa·s

Cl[Si](Cl)(Cl)Cl
101 kPa
Settings | viscosity
303.1 K | 0.462 mPa·s and 0.442 mPa·s
313.1 K | 0.402 mPa·s

Cc1ccc(Cl)cc1
viscosity
Settings | 298.15 K | 303.15 K | 308.15 K | 313.15 K | 318.15 K
100 kPa | 0.83 mPa·s | 0.782 mPa·s | 0.724 mPa·s and 0.737 mPa·s | 0.682 mPa·s | 0.632 mPa·s and 0.662 mPa·s
101 kPa | – | 0.782 mPa·s and 0.782 mPa·s | 0.728 mPa·s | 0.684 mPa·s and 0.682 mPa·s | 0.632 mPa·s

OCCN(CCO)CCO
viscosity
Settings | 293.15 K | 298.15 K | 303.15 K | 313.15 K | 323.15 K
100 kPa | 935 mPa·s | 611 mPa·s | 413 mPa·s | – | –
101 kPa | 911.7 mPa·s and 795 mPa·s | 607 mPa·s | 403 mPa·s | 201.7 mPa·s | 123 mPa·s

CN1CCN(C)C1=O
100 kPa
Settings | viscosity [mPa·s]
293.15 K | 2.139
298.15 K | 1.945
303.15 K | 1.76
308.15 K | 1.616
313.15 K | 1.491
318.15 K | 1.381
323.15 K | 1.28

CCOC(=O)OCC
Settings | viscosity
293.15 K, 101 kPa | 0.8024 mPa·s
298.15 K, 101 kPa | 0.74 mPa·s and 0.7539 mPa·s
303.15 K, 100 kPa | 0.698 mPa·s
303.15 K, 101 kPa | 0.701 mPa·s
308.15 K, 100 kPa | 0.65 mPa·s
308.15 K, 101 kPa | 0.656 mPa·s
313.15 K, 100 kPa | 0.622 mPa·s
313.15 K, 101 kPa | 0.621 mPa·s
318.15 K, 100 kPa | 0.58 mPa·s
318.15 K, 101.3 kPa | 0.578 mPa·s
318.15 K, 101.33 kPa | 0.578 mPa·s
323.15 K, 100 kPa | 0.54 mPa·s
323.15 K, 101 kPa | 0.543 mPa·s

COC=O
Settings | viscosity [mPa·s]
298.15 K, 101.33 kPa | 0.328

c1ccc(Oc2ccccc2)cc1
101 kPa
Settings | viscosity
303.15 K | 3.3 mPa·s and 3.051 mPa·s
308.15 K | 2.92 mPa·s
313.15 K | 2.61 mPa·s

CCC#N
viscosity [mPa·s]
Settings | 298.15 K | 303.15 K | 308.15 K | 313.15 K | 318.15 K | 323.15 K
101 kPa | 0.42 | 0.41 | 0.39 | 0.37 | 0.36 | 0.31
101.33 kPa | – | 0.3886 | – | – | – | –

COCCOCCO
viscosity
Settings | 293.15 K | 298.15 K | 303.15 K | 308.15 K | 313.15 K | 318.15 K | 323.15 K
101 kPa | 3.906 mPa·s | 3.442 mPa·s and 3.574 mPa·s | 3.152 mPa·s | 2.593 mPa·s | – | 2.159 mPa·s | –
101.3 kPa | 3.943 mPa·s | – | 3.016 mPa·s | – | 2.348 mPa·s | – | 1.902 mPa·s
101.33 kPa | – | 3.565 mPa·s and 3.565 mPa·s | – | 2.627 mPa·s and 2.865 mPa·s | – | – | –

CCCCCCCCCCCC + c1ccccc1
[1]
Settings | viscosity [mPa·s]
295.15 K, 100 kPa, x2 = 0.3903 | 1.047
298 K, 101 kPa, x2 = 0.5 | 0.9053
298.15 K, 101.33 kPa, x1 = 0.04733 | 0.6259
298.15 K, 101.33 kPa, x1 = 0.1084 | 0.6476
298.15 K, 101.33 kPa, x1 = 0.2036 | 0.6913
298.15 K, 101.33 kPa, x1 = 0.2978 | 0.7491
298.15 K, 101.33 kPa, x1 = 0.4139 | 0.8308
298.15 K, 101.33 kPa, x1 = 0.5192 | 0.9153
298.15 K, 101.33 kPa, x1 = 0.6155 | 0.9976
298.15 K, 101.33 kPa, x1 = 0.7291 | 1.102
298.15 K, 101.33 kPa, x1 = 0.8011 | 1.168
298.15 K, 101.33 kPa, x1 = 0.9231 | 1.291
298.38 K, 101.3 kPa, x1 = 0.5002 | 0.8885
298.52 K, 101.3 kPa, x1 = 0.2502 | 0.7103
298.76 K, 101.3 kPa, x1 = 0.7496 | 1.097
298.77 K, 101.3 kPa, x1 = 0.7496 | 1.096
298.79 K, 101.3 kPa, x1 = 0.7496 | 1.095
299.49 K, 101.3 kPa, x1 = 0.5002 | 0.8746
308.08 K, 101.3 kPa, x1 = 0.5002 | 0.775
308.51 K, 101.3 kPa, x1 = 0.2502 | 0.6242
308.9 K, 101.3 kPa, x1 = 0.7496 | 0.9482
318 K, 101 kPa, x2 = 0.5 | 0.6904
322.92 K, 101.3 kPa, x1 = 0.5002 | 0.6451
322.94 K, 101.3 kPa, x1 = 0.2502 | 0.5262

Cc1ccccc1C + CC(C)CC(C)(C)C
[1], 308.15 K, 101 kPa
Settings | viscosity [mPa·s]
x2 = 0.1337 | 0.6095
x2 = 0.2492 | 0.5663
x2 = 0.3373 | 0.539
x2 = 0.4352 | 0.5141
x2 = 0.5589 | 0.4878
x2 = 0.6421 | 0.4734
x2 = 0.7365 | 0.4602
x2 = 0.8167 | 0.4525
x2 = 0.917 | 0.4417

CCCCCCCCCCCC[P+](CC)(CC)CC.N#Cc1ccc[n-]1 + OCCN(CCO)CCO
viscosity [mPa·s], [1], 100 kPa
Settings | x1 = 0.035 | x1 = 0.091 | x1 = 0.207 | x1 = 0.28 | x1 = 0.473 | x1 = 0.687 | x1 = 0.809
293.15 K | 991 | – | 876 | 863 | 853 | 836 | 718
298.15 K | – | 675 | – | – | – | – | –

CCCCCCCCCCO + CCCCO
viscosity [mPa·s], [1]
Settings | 293.15 K | 298.15 K | 308.15 K | 318.15 K
101 kPa, x2 = 0.05 | – | 10.62 | 7.143 | 5.139
101 kPa, x2 = 0.1 | – | 10.2 | 6.798 | 4.922
101 kPa, x2 = 0.15 | – | 9.731 | 6.473 | 4.71
101 kPa, x2 = 0.2 | – | 9.226 | 6.163 | 4.501
101 kPa, x2 = 0.25 | – | 8.701 | 5.866 | 4.294
101 kPa, x2 = 0.3 | – | 8.167 | 5.576 | 4.088
101 kPa, x2 = 0.35 | – | 7.635 | 5.292 | 3.883
101 kPa, x2 = 0.4 | – | 7.113 | 5.012 | 3.678
101 kPa, x2 = 0.45 | – | 6.609 | 4.734 | 3.475
101 kPa, x2 = 0.5 | – | 6.127 | 4.456 | 3.272
101 kPa, x2 = 0.55 | – | 5.671 | 4.179 | 3.07
101 kPa, x2 = 0.6 | – | 5.243 | 3.903 | 2.872
101 kPa, x2 = 0.65 | – | 4.843 | 3.629 | 2.676
101 kPa, x2 = 0.7 | – | 4.47 | 3.358 | 2.485
101 kPa, x2 = 0.75 | – | 4.12 | 3.093 | 2.301
101 kPa, x2 = 0.8 | – | 3.788 | 2.837 | 2.124
101 kPa, x2 = 0.85 | – | 3.468 | 2.592 | 1.958
101 kPa, x2 = 0.9 | – | 3.152 | 2.364 | 1.804
101 kPa, x2 = 0.95 | – | 2.828 | 2.157 | 1.665
101.33 kPa, x2 = 0.1748 | 11.91 | – | – | –
101.33 kPa, x2 = 0.1793 | – | 9.791 | – | –
101.33 kPa, x2 = 0.2939 | 10.27 | – | – | –
101.33 kPa, x2 = 0.4002 | – | 7.559 | – | –
101.33 kPa, x2 = 0.491 | 7.756 | – | – | –
101.33 kPa, x2 = 0.5389 | – | 6.102 | – | –
101.33 kPa, x2 = 0.6325 | 6.156 | – | – | –
101.33 kPa, x2 = 0.7242 | – | 4.498 | – | –
101.33 kPa, x2 = 0.7787 | 4.69 | – | – | –
101.33 kPa, x2 = 0.836 | – | 3.659 | – | –
101.33 kPa, x2 = 0.8851 | 3.806 | – | – | –
101.33 kPa, x2 = 0.9219 | – | 3.077 | – | –
